Measurements from patent US8288379B2, “Thia-triaza-cyclopentazulenes” (Boehringer Ingelheim International GmbH, priority 2009, dated 2012).

Experiments:
PC-3 cells = assay: Inhibition of proliferation: CyQuant PC-3; assay type: cell-based; details: 72 h; PC-3 human prostate carcinoma cells, incubated with compounds for 3 days, CyQuant NF DNA dye
Outline: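 PC-3 proliferation read by CyQuant NF: DNA-binding dye with membrane permeabilization reagent added after medium removal, 30-60 min incubation, fluorescence at Ex 485/Em 530 nm. Proliferation judged from cell counts of drug-treated versus untreated controls.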

FRAP1 (mTOR) kinase = biological target: T1, FRAP1 (mTOR) kinase (Homo sapiens, UniProt P42345); assay: Inhibition of mTOR-induced p-4E-BP1 phosphorylation (TR-FRET mTOR Activity Kit; Invitrogen); assay type: biochemical; details: 400 nM GFP-4E-BP1 substrate, ~150 ng/mL mTOR, one hour at room temperature
T1 construct: purchased Invitrogen PV4753
T1 sequence (P42345 1360-2549 limits assumed): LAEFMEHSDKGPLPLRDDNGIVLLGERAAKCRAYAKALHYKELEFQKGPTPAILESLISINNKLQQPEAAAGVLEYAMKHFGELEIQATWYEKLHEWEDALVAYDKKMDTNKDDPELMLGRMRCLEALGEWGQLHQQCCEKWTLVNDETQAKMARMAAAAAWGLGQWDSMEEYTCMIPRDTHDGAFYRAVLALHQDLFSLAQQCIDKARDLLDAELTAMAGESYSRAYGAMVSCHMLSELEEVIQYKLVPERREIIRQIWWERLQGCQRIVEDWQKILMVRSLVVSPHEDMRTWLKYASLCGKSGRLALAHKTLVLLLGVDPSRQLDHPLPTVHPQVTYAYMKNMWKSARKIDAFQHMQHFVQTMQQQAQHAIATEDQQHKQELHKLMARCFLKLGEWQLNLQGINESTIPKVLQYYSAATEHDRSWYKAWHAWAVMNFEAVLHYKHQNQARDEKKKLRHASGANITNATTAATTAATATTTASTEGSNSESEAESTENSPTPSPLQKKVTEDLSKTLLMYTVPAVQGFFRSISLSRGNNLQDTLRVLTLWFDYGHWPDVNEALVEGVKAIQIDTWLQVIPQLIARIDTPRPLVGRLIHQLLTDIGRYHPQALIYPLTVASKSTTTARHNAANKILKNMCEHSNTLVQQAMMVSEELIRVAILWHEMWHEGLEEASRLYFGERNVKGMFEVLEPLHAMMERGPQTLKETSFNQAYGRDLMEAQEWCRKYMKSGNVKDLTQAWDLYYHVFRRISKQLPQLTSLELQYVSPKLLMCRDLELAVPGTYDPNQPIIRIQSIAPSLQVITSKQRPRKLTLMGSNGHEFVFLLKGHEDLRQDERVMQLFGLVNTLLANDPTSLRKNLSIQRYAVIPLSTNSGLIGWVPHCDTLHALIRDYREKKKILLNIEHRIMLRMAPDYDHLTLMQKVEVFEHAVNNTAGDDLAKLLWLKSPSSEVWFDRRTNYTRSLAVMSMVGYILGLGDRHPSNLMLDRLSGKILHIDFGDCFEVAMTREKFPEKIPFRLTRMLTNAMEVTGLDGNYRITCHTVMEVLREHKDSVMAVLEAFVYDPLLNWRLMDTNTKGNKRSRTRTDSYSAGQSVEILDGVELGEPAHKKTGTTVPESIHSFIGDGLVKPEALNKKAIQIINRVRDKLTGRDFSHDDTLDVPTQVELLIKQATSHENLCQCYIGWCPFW
Outline: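 LanthaScreen TR-FRET: mTOR with GFP-4E-BP1 substrate in HEPES pH 7.5 buffer with 10 mM MnCl2, compound preincubated 30 min at RT, then ATP added and reacted 1 h at 20-25 °C. Stopped with EDTA plus Tb-anti-p4E-BP1 (pThr46), 1 h; GFP/Tb emission ratio over a 16-point curve, sigmoidal fit for IC50.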

Row | Compound | EC50 (PC-3 cells) | IC50 (FRAP1 (mTOR) kinase)
1 | CNC(=O)Nc1nc2c(s1)-c1c(c(-c3ccc(NC)nc3)nn1-c1cccnc1C)CCC2 [Example B-143, 1-Methyl-3-[3-(6-methylamino-pyridin-3-yl)-1-(2-methyl-pyridin-3-yl)-1,4,5,6-tetrahydro-9-thia-1,2,7-triaza-cyclopent[e]azulen-8-yl]-urea] | 424 nM | 71 nM
2 | CN(C)CCCC(=O)Nc1nc2c(s1)-c1c(c(-c3ccc(N)nc3)nn1-c1ccccc1F)CCC2 [Example E-16, N-[3-(6-Amino-pyridin-3-yl)-1-(2-fluoro-phenyl)-1,4,5,6-tetrahydro-9-thia-1,2,7-triaza-cyclopenta[e]azulen-8-yl]-4-dimethylamino-butyramide] | 32 nM | 13 nM
3 | CNc1ccc(-c2nn(C(C)C)c3c2CCCc2nc(NC(=O)N(C)C)sc2-3)cn1 [Example B-27] | 328 nM | 501 nM
4 | CCn1nc(-c2ccc(N)nc2)c2c1-c1sc(NC(C)=O)nc1CCC2 [Example B-130, N-[3-(6-Amino-pyridin-3-yl)-1-ethyl-1,4,5,6-tetrahydro-9-thia-1,2,7-triaza-cyclopenta[e]azulen-8-yl]-acetamide] | 178 nM | 19 nM
5 | COc1ccccc1-n1nc(-c2c[nH]cn2)c2c1-c1sc(NC(C)=O)nc1CCC2 [Example B-117] | 306 nM | 35 nM
6 | CNc1ccc(-c2nn(-c3ccccc3Cl)c3c2CCCc2nc(NC(=O)N(C)C)sc2-3)cn1 [Example B-45] | 375 nM | 782 nM
7 | CCn1nc(-c2ccc(N)nc2)c2c1-c1sc(NC(=O)N(C)C)nc1CCC2 [Example B-35] | 408 nM | 219 nM
8 | CCCn1nc(-c2ccc(N)nc2)c2c1-c1sc(NC(=O)N(C)C)nc1CCC2 [Example B-33] | 310 nM | 116 nM
9 | CCNc1ccc(-c2nn(-c3ccncc3C)c3c2CCCc2nc(NC(C)=O)sc2-3)cn1 [Example B-77, N-[3-(6-Ethylamino-pyridin-3-yl)-1-(3-methyl-pyridin-4-yl)-1,4,5,6-tetrahydro-9-thia-1,2,7-triaza-cyclopenta[e]azulen-8-yl]-acetamide] | 126 nM | 34 nM
10 | CCNc1ccc(-c2nn(-c3ccccc3)c3c2CCCc2nc(NC(C)=O)sc2-3)cn1 [Example B-122, N-[3-(6-Ethylamino-pyridin-3-yl)-1-phenyl-1,4,5,6-tetrahydro-9-thia-1,2,7-triaza-cyclopenta[e]azulen-8-yl]-acetamide] | 79 nM | 32 nM
11 | CC(=O)Nc1nc2c(s1)-c1c(c(-c3c[nH]cn3)nn1-c1ccc(C(=O)N(C)C)cc1Cl)CCC2 [Example B-114] | 382 nM | 4 nM
12 | CC(=O)Nc1nc2c(s1)-c1c(c(-c3ccc(N)nc3)nn1-c1ccccc1Br)CCC2 [Example B-63, N-[3-(6-Amino-pyridin-3-yl)-1-(2-bromo-phenyl)-1,4,5,6-tetrahydro-9-thia-1,2,7-triaza-cyclopenta[e]azulen-8-yl]-acetamide] | 143 nM | 27 nM
13 | CCNc1ccc(-c2nn(-c3ccccc3C)c3c2CCCc2nc(NC(=O)CCCN(C)C)sc2-3)cn1 [Example B-70] | 284 nM | 62 nM
14 | CC(=O)Nc1nc2c(s1)-c1c(c(-c3c[nH]c(C)n3)nn1-c1ccccc1C)CCC2 [Example B-120, N-[3-(2-Methyl-1H-imidazol-4-yl)-1-o-tolyl-1,4,5,6-tetrahydro-9-thia-1,2,7-triaza-cyclopenta[e]azulen-8-yl]-acetamide] | 250 nM | 65 nM
15 | CN(C)C(=O)Nc1nc2c(s1)-c1c(c(-c3ccc(N)nc3)nn1-c1ccccc1)CCC2 [Example B-96, 3-[3-(6-Amino-pyridin-3-yl)-1-phenyl-1,4,5,6-tetrahydro-9-thia-1,2,7-triaza-cyclopenta[e]azulen-8-yl]-1,1-dimethyl-urea] | 289 nM | 67 nM
16 | CNc1ccc(-c2nn(-c3ccccc3Cl)c3c2CCCc2nc(NC(C)=O)sc2-3)cn1 [Example B-28, N-[1-(2-Chloro-phenyl)-3-(6-methylamino-pyridin-3-yl)-1,4,5,6-tetrahydro-9-thia-1,2,7-triaza-cyclopenta[e]azulen-8-yl]-acetamide] | 70 nM | 50 nM
17 | CN(C)C(=O)Nc1nc2c(s1)-c1c(c(-c3ccc(N)nc3)nn1-c1ccccc1Cl)CCC2 [Example B-54] | 390 nM | 570 nM

Row | Compound | EC50 (PC-3 cells) | IC50 (FRAP1 (mTOR) kinase)
18 | COCCn1nc(-c2ccc(N)nc2)c2c1-c1sc(NC(C)=O)nc1CCC2 [Example B-132, N-[3-(6-Amino-pyridin-3-yl)-1-(2-methoxy-ethyl)-1,4,5,6-tetrahydro-9-thia-1,2,7-triaza-cyclopenta[e]azulen-8-yl]-acetamide] | 326 nM | 52 nM
19 | CC(=O)Nc1nc2c(s1)-c1c(c(-c3ccc(C)nc3)nn1-c1ccccc1F)CCC2 [Example B-17, N-[1-(2-Fluoro-phenyl)-3-(6-methyl-pyridin-3-yl)-1,4,5,6-tetrahydro-9-thia-1,2,7-triaza-cyclopenta[e]azulen-8-yl]-acetamide] | 114 nM | 53 nM
20 | CN(C)C(=O)Nc1nc2c(s1)-c1c(c(-c3ccc(N)nc3)nn1C1CCN(C3CC3)CC1)CCC2 [Example B-49, 3-[3-(6-Amino-pyridin-3-yl)-1-(1-cyclopropyl-piperidin-4-yl)-1,4,5,6-tetrahydro-9-thia-1,2,7-triaza-cyclopenta[e]azulen-8-yl]-1,1-dimethyl-urea] | 156 nM | 41 nM
21 | CNc1ccc(-c2nn(-c3ccncc3C)c3c2CCCc2nc(NC(C)=O)sc2-3)cn1 [Example B-85, N-[3-(6-Methylamino-pyridin-3-yl)-1-(3-methyl-pyridin-4-yl)-1,4,5,6-tetrahydro-9-thia-1,2,7-triaza-cyclopenta[e]azulen-8-yl]-acetamide] | 76 nM | 24 nM
22 | COCC(=O)Nc1nc2c(s1)-c1c(c(-c3ccc(N)nc3)nn1-c1ccccc1F)CCC2 [Example E-18, N-[3-(6-Amino-pyridin-3-yl)-1-(2-fluoro-phenyl)-1,4,5,6-tetrahydro-9-thia-1,2,7-triaza-cyclopenta[e]azulen-8-yl]-2-methoxy-acetamide] | 87 nM | 59 nM
23 | CCNc1ccc(-c2nn(-c3ccccc3F)c3c2CCCc2nc(NC(C)=O)sc2-3)cn1 [Example B-76, N-[3-(6-Ethylamino-pyridin-3-yl)-1-(2-fluoro-phenyl)-1,4,5,6-tetrahydro-9-thia-1,2,7-triaza-cyclopenta[e]azulen-8-yl]-acetamide] | 79 nM | 31 nM
24 | COCCn1nc(-c2ccc(N)nc2)c2c1-c1sc(NC(=O)N(C)C)nc1CCC2 [Example B-51] | 523 nM | 187 nM
25 | CCNc1ccc(-c2nn(-c3ccccc3C)c3c2CCCc2nc(NC(=O)CCOC)sc2-3)cn1 [Example B-71] | 318 nM | 138 nM
26 | CCNc1ccc(-c2nn(-c3cccnc3)c3c2CCCc2nc(NC(C)=O)sc2-3)cn1 [Example B-127] | 137 nM | 83 nM
27 | CCc1ccccc1-n1nc(-c2c[nH]cn2)c2c1-c1sc(NC(C)=O)nc1CCC2 [Example B-118, N-[1-(2-Ethyl-phenyl)-3-(1H-imidazol-4-yl)-1,4,5,6-tetrahydro-9-thia-1,2,7-triaza-cyclopenta[e]azulen-8-yl]-acetamide] | 55 nM | 17 nM
28 | CCNc1ccc(-c2nn(CCOC)c3c2CCCc2nc(NC(C)=O)sc2-3)cn1 [Example B-125] | 253 nM | 114 nM
29 | CNc1ccc(-c2nn(-c3ccccc3C)c3c2CCCc2nc(NC(=O)OC)sc2-3)cn1 [Example B-50, [3-(6-Methylamino-pyridin-3-yl)-1-o-tolyl-1,4,5,6-tetrahydro-9-thia-1,2,7-triaza-cyclopenta[e]azulen-8-yl]-carbamic acid methyl ester] | 209 nM | 30 nM
30 | CC(=O)Nc1nc2c(s1)-c1c(c(-c3ccc(C)nc3)nn1-c1ccncc1C)CCC2 [Example B-90] | 422 nM | 118 nM
31 | CCNc1ccc(-c2nn(-c3ccccc3C)c3c2CCCc2nc(NC(=O)CNC)sc2-3)cn1 [Example B-69] | 229 nM | 145 nM
32 | CNc1ccc(-c2nn(-c3ccccc3C)c3c2CCCc2nc(NC(C)=O)sc2-3)cn1 [Example B-06, N-[3-(6-Methylamino-pyridin-3-yl)-1-o-tolyl-1,4,5,6-tetrahydro-9-thia-1,2,7-triaza-cyclopenta[e]azulen-8-yl]-acetamide] | 66 nM | 36 nM
33 | CNc1ccc(-c2nn(C(C)C)c3c2CCCc2nc(NC(C)=O)sc2-3)cn1 [Example B-05, N-[1-Isopropyl-3-(6-methylamino-pyridin-3-yl)-1,4,5,6-tetrahydro-9-thia-1,2,7-triaza-cyclopenta[e]azulen-8-yl]-acetamide] | 95 nM | 24 nM
